From PubChem BioAssay AID1259407 (Chemical Carcinogenesis Research Information System (CCRIS), 2018)
Calls of active or inactive are those of the source. No rule for the calls is given here.

Test system: CCRIS mutagenicity, Ames/micronucleus/aberration tests
Experiment: CCRIS mutagenicity studies

With `CCC(C)=O` the mutagenic call (Test System: AMES SALMONELLA TYPHIMURIUM, Strain/Indicator: TA97, Metabolic Activation: HAMSTER, LIVER, S-9, AROCLOR 1254 (10 OR 30%), Method: PREINCUBATION) was “inactive; negative”, the mutagenic call (Test System: AMES SALMONELLA TYPHIMURIUM, Strain/Indicator: TA97, Metabolic Activation: NONE, Method: PREINCUBATION) was “inactive; negative” and the mutagenic call (Test System: AMES SALMONELLA TYPHIMURIUM, Strain/Indicator: TA97, Metabolic Activation: RAT, LIVER, S-9, AROCLOR 1254 (10 OR 30%), Method: PREINCUBATION) was “inactive; negative”. For the same molecule, the mutagenic call (Test System: AMES SALMONELLA TYPHIMURIUM, Strain/Indicator: TA98, Metabolic Activation: HAMSTER, LIVER, S-9, AROCLOR 1254 (10 OR 30%), Method: PREINCUBATION) was “inactive; negative”, the mutagenic call (Test System: AMES SALMONELLA TYPHIMURIUM, Strain/Indicator: TA98, Metabolic Activation: RAT, LIVER, S-9, AROCLOR 1254 (10 OR 30%), Method: PREINCUBATION) was “inactive; negative” and the mutagenic call (Test System: AMES SALMONELLA TYPHIMURIUM, Strain/Indicator: TA98, Metabolic Activation: RAT, LIVER, S-9, AROCLOR 1254, Method: PREINCUBATION) was “inactive; negative”. For the same molecule, the mutagenic call (Test System: AMES SALMONELLA TYPHIMURIUM, Strain/Indicator: TA98, Metabolic Activation: RAT, LIVER, S-9, KC 500, Method: PREINCUBATION) was “inactive; negative”, the mutagenic call (Test System: AMES SALMONELLA TYPHIMURIUM, Strain/Indicator: TA98, Metabolic Activation: RAT, LIVER, S-9, PHENOBARBITAL AND BETA-NAPHTHOFLAVONE, Method: PREINCUBATION) was “inactive; negative” and the mutagenic call (Test System: AMES SALMONELLA TYPHIMURIUM, Strain/Indicator: TA100, Metabolic Activation: HAMSTER, LIVER, S-9, AROCLOR 1254 (10 OR 30%), Method: PREINCUBATION) was “inactive; negative”. The mutagenic call (Test System: AMES SALMONELLA TYPHIMURIUM, Strain/Indicator: TA100, Metabolic Activation: RAT, LIVER, S-9, AROCLOR 1254 (10 OR 30%), Method: PREINCUBATION) was “inactive; negative”, the mutagenic call (Test System: AMES SALMONELLA TYPHIMURIUM, Strain/Indicator: TA100, Metabolic Activation: RAT, LIVER, S-9, AROCLOR 1254, Method: PREINCUBATION) was “inactive; negative” and the mutagenic call (Test System: AMES SALMONELLA TYPHIMURIUM, Strain/Indicator: TA100, Metabolic Activation: RAT, LIVER, S-9, KC 500, Method: PREINCUBATION) was “inactive; negative”. The mutagenic call (Test System: AMES SALMONELLA TYPHIMURIUM, Strain/Indicator: TA100, Metabolic Activation: RAT, LIVER, S-9, PHENOBARBITAL AND BETA-NAPHTHOFLAVONE, Method: PREINCUBATION) was “inactive; negative”, the mutagenic call (Test System: AMES SALMONELLA TYPHIMURIUM, Strain/Indicator: TA102, Metabolic Activation: NONE, Method: PREINCUBATION) was “inactive; negative” and the mutagenic call (Test System: AMES SALMONELLA TYPHIMURIUM, Strain/Indicator: TA102, Metabolic Activation: RAT, LIVER, S-9, PHENOBARBITAL AND BETA-NAPHTHOFLAVONE, Method: PREINCUBATION) was “inactive; negative”. For the same molecule, the mutagenic call (Test System: AMES SALMONELLA TYPHIMURIUM, Strain/Indicator: TA104, Metabolic Activation: NONE, Method: PREINCUBATION) was “inactive; negative”, the mutagenic call (Test System: AMES SALMONELLA TYPHIMURIUM, Strain/Indicator: TA104, Metabolic Activation: RAT, LIVER, S-9, PHENOBARBITAL AND BETA-NAPHTHOFLAVONE, Method: PREINCUBATION) was “inactive; negative” and the mutagenic call (Test System: AMES SALMONELLA TYPHIMURIUM, Strain/Indicator: TA1535, Metabolic Activation: HAMSTER, LIVER, S-9, AROCLOR 1254 (10 OR 30%), Method: PREINCUBATION) was “inactive; negative”. For the same molecule, the mutagenic call (Test System: AMES SALMONELLA TYPHIMURIUM, Strain/Indicator: TA1535, Metabolic Activation: RAT, LIVER, S-9, AROCLOR 1254 (10 OR 30%), Method: PREINCUBATION) was “inactive; negative”, the mutagenic call (Test System: AMES SALMONELLA TYPHIMURIUM, Strain/Indicator: TA1535, Metabolic Activation: RAT, LIVER, S-9, AROCLOR 1254, Method: PREINCUBATION) was “inactive; negative” and the mutagenic call (Test System: AMES SALMONELLA TYPHIMURIUM, Strain/Indicator: TA1535, Metabolic Activation: RAT, LIVER, S-9, KC 500, Method: PREINCUBATION) was “inactive; negative”. The mutagenic call (Test System: AMES SALMONELLA TYPHIMURIUM, Strain/Indicator: TA1535, Metabolic Activation: RAT, LIVER, S-9, PHENOBARBITAL AND BETA-NAPHTHOFLAVONE, Method: PREINCUBATION) was “inactive; negative”, the mutagenic call (Test System: AMES SALMONELLA TYPHIMURIUM, Strain/Indicator: TA1537, Metabolic Activation: HAMSTER, LIVER, S-9, AROCLOR 1254 (30%), Method: PREINCUBATION) was “inactive; negative” and the mutagenic call (Test System: AMES SALMONELLA TYPHIMURIUM, Strain/Indicator: TA1537, Metabolic Activation: RAT, LIVER, S-9, AROCLOR 1254 (30%), Method: PREINCUBATION) was “inactive; negative”. The mutagenic call (Test System: AMES SALMONELLA TYPHIMURIUM, Strain/Indicator: TA1537, Metabolic Activation: RAT, LIVER, S-9, AROCLOR 1254, Method: PREINCUBATION) was “inactive; negative”, the mutagenic call (Test System: AMES SALMONELLA TYPHIMURIUM, Strain/Indicator: TA1537, Metabolic Activation: RAT, LIVER, S-9, KC 500, Method: PREINCUBATION) was “inactive; negative” and the mutagenic call (Test System: AMES SALMONELLA TYPHIMURIUM, Strain/Indicator: TA1537, Metabolic Activation: RAT, LIVER, S-9, PHENOBARBITAL AND BETA-NAPHTHOFLAVONE, Method: PREINCUBATION) was “inactive; negative”. For the same molecule, the mutagenic call (Test System: AMES SALMONELLA TYPHIMURIUM, Strain/Indicator: TA1538, Metabolic Activation: NONE, Method: PREINCUBATION) was “inactive; negative”, the mutagenic call (Test System: AMES SALMONELLA TYPHIMURIUM, Strain/Indicator: TA1538, Metabolic Activation: RAT, LIVER, S-9, AROCLOR 1254, Method: PREINCUBATION) was “inactive; negative” and the mutagenic call (Test System: AMES SALMONELLA TYPHIMURIUM, Strain/Indicator: TA1538, Metabolic Activation: RAT, LIVER, S-9, KC 500, Method: PREINCUBATION) was “inactive; negative”. The mutagenic call (Test System: E. COLI, Strain/Indicator: WP2UVRA/PKM101, Metabolic Activation: NONE, Method: PREINCUBATION) was “inactive; negative”, the mutagenic call (Test System: E. COLI, Strain/Indicator: WP2UVRA/PKM101, Metabolic Activation: RAT, LIVER, S-9, PHENOBARBITAL AND BETA-NAPHTHOFLAVONE, Method: PREINCUBATION) was “inactive; negative” and the mutagenic call (Test System: E. COLI, Strain/Indicator: WP2 UVRA, Metabolic Activation: NONE, Method: PREINCUBATION) was “inactive; negative”. For the same molecule, the mutagenic call (Test System: E. COLI, Strain/Indicator: WP2UVRA, Metabolic Activation: NONE, Method: PREINCUBATION) was “inactive; negative”, the mutagenic call (Test System: E. COLI, Strain/Indicator: WP2 UVRA, Metabolic Activation: RAT, LIVER, S-9, KC 500, Method: PREINCUBATION) was “inactive; negative” and the mutagenic call (Test System: E. COLI, Strain/Indicator: WP2UVRA, Metabolic Activation: RAT, LIVER, S-9, PHENOBARBITAL AND BETA-NAPHTHOFLAVONE, Method: PREINCUBATION) was “inactive; negative”. For the same molecule, the mutagenic call (Test System: MOUSE LYMPHOMA, Strain/Indicator: L5178Y (TK+/TK-), Metabolic Activation: NONE, Method: SUSPENSION/PLATE) was “inactive; negative” and the mutagenic call (Test System: MOUSE LYMPHOMA, Strain/Indicator: L5178Y (TK+/TK-), Metabolic Activation: RAT, LIVER, S-9, AROCLOR 1242 AND AROCLOR 1254 (2:1), Method: SUSPENSION/PLATE) was “inactive; negative”.
For `Cc1ccc(N)c(Cl)c1`, the mutagenic call (Test System: UDS RODENT HEPATOCYTES, Strain/Indicator: THY INCORP (NON-S-PHASE), Metabolic Activation: NONE, Method: AUTORADIOGRAPHY) was “active; positive”.
`CCOc1ccc(N)cc1N` was tested, and the mutagenic call (Test System: AMES SALMONELLA TYPHIMURIUM, Strain/Indicator: TA97, Metabolic Activation: RAT, LIVER, S-9, AROCLOR 1254 (4 OR 10%), Method: STANDARD PLATE) was “active; positive”, the mutagenic call (Test System: AMES SALMONELLA TYPHIMURIUM, Strain/Indicator: TA1537, Metabolic Activation: RAT, LIVER, S-9, AROCLOR 1254 (4 OR 10%), Method: STANDARD PLATE) was “active; positive” and the mutagenic call (Test System: AMES SALMONELLA TYPHIMURIUM, Strain/Indicator: TA1538, Metabolic Activation: RAT, LIVER, S-9, AROCLOR 1254 (4 OR 10%), Method: STANDARD PLATE) was “active; positive”.
